Patent US5739338A, “N-aryl substituted tetrahydroquinolines having retinoid agonist, retinoid antagonist or retinoid inverse agonist type biological activity” (Allergan, priority 1996, dated 1998)

Experiments:
[1] = biological target: T1, RARβ (Homo sapiens, UniProt P10826); assay: Ligand Binding Assay, RARβ
T1 sequence (P10826 1-448 isoform P10826-2): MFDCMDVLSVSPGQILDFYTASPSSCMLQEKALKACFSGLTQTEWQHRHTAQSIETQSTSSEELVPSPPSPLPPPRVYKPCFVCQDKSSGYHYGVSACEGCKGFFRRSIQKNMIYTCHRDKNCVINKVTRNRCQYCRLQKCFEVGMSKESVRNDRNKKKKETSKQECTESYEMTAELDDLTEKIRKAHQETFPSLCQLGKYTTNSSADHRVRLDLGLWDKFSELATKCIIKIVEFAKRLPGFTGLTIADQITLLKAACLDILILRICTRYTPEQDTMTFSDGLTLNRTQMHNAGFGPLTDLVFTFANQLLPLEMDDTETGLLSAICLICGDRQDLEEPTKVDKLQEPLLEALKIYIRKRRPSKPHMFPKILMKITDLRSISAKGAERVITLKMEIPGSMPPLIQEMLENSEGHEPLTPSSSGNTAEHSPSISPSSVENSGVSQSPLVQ
Excerpt: (§1) Other assays described below, measure the ability of the compounds of the present invention to bind to, and/or activate various retinoid receptor subtypes. When in these assays a compound binds to a given receptor subtype and activates the transcription of a reporter gene through that subtype, then the compound is considered an agonist of that receptor subtype. […] In the below descried assays the ability of the compounds to bind to RARα, RARβ, RARγ, RXRα, RXRβ and RXRγ receptors, and the ability or inability of the compounds to activate transcription of a reporter gene through these receptor subtypes can be tested.
(§2) A holoreceptor transactivation assay and a ligand binding assay which measure the antagonist/agonist like activity of the compounds of the invention, or their ability to bind to the several retinoid receptor subtypes, respectively, are described in published PCT Application No. WO WO93/11755 (particularly on pages 30-33 and 37-41) published on Jun. 24, 1993, the specification of which is also incorporated herein by reference. A description of the holoreceptor transactivation assay is also provided below.
(§3) CV1 cells (5,000 cells/well) were transfected with an RAR reporter plasmid MTV-TREp-LUC (50 ng) along with one of the RAR expression vectors (10 ng) in an automated 96-well format by the calcium phosphate procedure of Heyman et al. Cell 68, 397-406, (1992). For RXRα and RXRγ transactivation assays, an RXR-responsive reporter plasmid CRBPII-tk-LUC (50 ng) along with the appropriate RXR expression vectors (10 ng) was used substantially as described by Heyman et al. above, and Allegretto et al. J. Biol. Chem. 268, 26625-26633. For RXRβ transactivation assays, an RXR-responsive reporter plasmid CPRE-tk-LUC ([…]) along with RXRβ expression vector ([…]) was used as described in above. These reporters contain DRI elements from human CRBPII and certain DRI elements from promoter, respectively. (see Mangelsdorf et al. The Retinoids: Biology, Chemistry and Medicine, pp 319-349, Raven Press Ltd., New York and Heyman et al., cited above) (1, 8). A β-galactosidase (50 ng) expression vector was used as an internal control in the transfections to normalize for variations in transfection efficiency. The cells were transfected in triplicate for 6 hours, followed by incubation with retinoids for 36 hours, and the extracts were assayed for luciferase and β-galactosidase activities. The detailed experimental procedure for holoreceptor transactivations has been described in Heyman et al. above, and Allegretto et al. cited above. The results obtained in this assay are expressed in EC50 numbers, as they are also in the chimeric receptor transactivation assay. The Heyman et al. Cell 68, 397-406, Allegretto et al. J. Biol. Chem. 268, 26625-26633, and Mangelsdorf et al. The Retinoids: Biology, Chemistry and Medicine, pp 319-349, Raven Press Ltd., New York, are expressly incorporated herein by reference. The results of ligand binding assay are expressed in Kd numbers. (See Cheng et al. Biochemical Pharmacology Vol. 22 pp 3099-3108, expressly incorporated herein by reference.)

[2] = biological target: T2, RARγ (Homo sapiens, UniProt P13631); assay: Ligand Binding Assay, RARγ
T2 sequence (P13631 1-454): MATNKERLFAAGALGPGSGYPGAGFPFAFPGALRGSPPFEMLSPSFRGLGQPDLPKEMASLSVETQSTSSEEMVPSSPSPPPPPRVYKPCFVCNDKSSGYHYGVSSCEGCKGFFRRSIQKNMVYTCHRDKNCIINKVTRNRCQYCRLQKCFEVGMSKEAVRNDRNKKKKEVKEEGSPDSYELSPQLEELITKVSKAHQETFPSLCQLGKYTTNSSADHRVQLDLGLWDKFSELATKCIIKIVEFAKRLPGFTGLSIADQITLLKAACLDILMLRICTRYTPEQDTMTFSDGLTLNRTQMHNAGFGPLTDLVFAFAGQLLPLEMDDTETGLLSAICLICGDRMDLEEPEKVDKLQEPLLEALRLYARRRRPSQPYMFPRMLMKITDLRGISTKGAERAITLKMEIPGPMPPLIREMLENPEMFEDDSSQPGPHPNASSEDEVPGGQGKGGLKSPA
Excerpt: as §1, §2, §3

[3] = biological target: T3, RARα (Homo sapiens, UniProt P10276); assay: Ligand Binding Assay, RARα
T3 sequence (P10276 1-462): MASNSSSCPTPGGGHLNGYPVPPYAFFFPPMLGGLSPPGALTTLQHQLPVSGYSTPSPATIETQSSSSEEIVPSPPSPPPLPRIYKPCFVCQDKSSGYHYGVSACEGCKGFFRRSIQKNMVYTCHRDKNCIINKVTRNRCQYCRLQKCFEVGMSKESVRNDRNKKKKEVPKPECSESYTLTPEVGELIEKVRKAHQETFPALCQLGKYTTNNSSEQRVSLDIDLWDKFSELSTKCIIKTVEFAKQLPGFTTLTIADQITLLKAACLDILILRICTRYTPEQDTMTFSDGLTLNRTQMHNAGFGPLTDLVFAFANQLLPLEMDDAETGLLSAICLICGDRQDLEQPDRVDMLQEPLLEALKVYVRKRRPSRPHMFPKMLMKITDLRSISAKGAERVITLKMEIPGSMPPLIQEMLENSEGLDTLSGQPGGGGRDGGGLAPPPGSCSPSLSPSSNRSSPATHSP
Excerpt: as §1, §2, §3

[4] = tested on: RARγ-VP-16 chimeric receptor; assay: Retinoid inverse agonist assay: inhibition of basal luciferase activity in CV-1 cells cotransfected with RARγ-VP-16, ER-RXRα and ERE-tk-Luc; type: cell-based; settings: RARγ-VP-16, ER-RXRα chimeric receptor, ERE-tk-Luc reporter, read-out: IC50 (inhibition of basal luciferase activity, inverse agonism)
Excerpt: The activity of retinoid inverse agonists can be tested by the procedure of Klein et al. J. Biol. Chem. 271, 22692-22696 (1996) which is expressly incorporated herein by reference.
In this assay, retinoid inverse agonists are able to repress the basal activity of a RARγ-VP-16 chimeric receptor where the constituitively active domain of the herpes simplex virus (HSV) VP-16 is fused to the N-terminus of RARγ. CV-1 cells are cotransfected with RARγ-VP-16, an ER-RXRα chimeric receptor and an ERE-tk-Luc chimeric reporter gene to produce a basal level of luciferase activity, as shown by Nagpal et al. EMBO J. 12, 2349-2360 […] expressly incorporated herein by reference. Retinoid inverse agonists are able to inhibit the basal luciferase activity in these cells in a dose dependent manner and IC50 s measured.

Structure (SMILES) | Kd [1] [µM] | Kd [2] [µM] | Kd [3] [µM] | IC50 [4] [µM]
Cc1ccc(N2CCC(C)(C)c3ccc(C#Cc4ccc(C(=O)O)cc4)cc32)cc1 [Compound 5, 4-(2-(4,4-Dimethyl-1,2,3,4-tetrahydro-N-(4-methylphenyl)quinolin-7-yl)ethynyl)benzoic Acid] | 0.003 | 0.009 | 0.013 | 0.001
CC1(C)CCN(c2ccccc2)c2cc(C#Cc3ccc(C(=O)O)cc3)ccc21 [Compound 10, 4-(2-(4,4-Dimethyl-1,2,3,4-tetrahydro-N-phenylquinolin-7-yl)ethynyl)benzoicAcid] | 0.018 | 0.052 | 0.147 | 
Cc1ccc(N2CCC(C)(C)c3ccc(C#Cc4ccc(C(=O)O)c(F)c4)cc32)cc1 [Compound 12, 4-(2-(4,4-Dimethyl-1,2,3,4-tetrahydro-N-(4-methylphenyl)quinolin-7-yl)ethynyl)-2-fluorobenzoic Acid] | 0.084 | 0.53 | 0.101 | 
Cc1ccc(N2CCC(C)(C)c3ccc(/C=C/c4ccc(C(=O)O)cc4)cc32)cc1 [Compound 14, (E)-4-(2-(4,4-dimethyl-1,2,3,4-tetrahydro-N-(4-methylphenyl)quinolin-7-yl)ethenyl)benzoic acid] | 0.005 | 0.015 | 0.011 | 
Cc1ccc(N2C(=O)CC(C)(C)c3ccc(C#Cc4ccc(C(=O)O)cc4)cc32)cc1 [Compound 22, 4-(2-(4,4-Dimethyl-3,4-dihydro-N-(4-methylphenyl)-2(1H)-quinolinon-7-yl)ethynyl)benzoic Acid] | 0.017 | 0.032 | 0.059 | 
Cc1ccc(N2CCC(C)(C)c3ccc(C(=O)Nc4ccc(C(=O)O)cc4)cc32)cc1 [Compound 25, (4,4-dimethyl-1,2,3,4-tetrahydro-N-(4-methylphenyl)quinolin-7-carboxyl)-4-carboxyanilide] | > 1 | > 1 | 0.027 | 
